Measured values: patent US20070099941A1, “N-arylalkyl-thienopyrimidin-4-amines and analogs as activators of caspases and inducers of apoptosis and the use thereof” (Cytovia, Inc., priority 2005, published 2007)

Key:
[1] = system: human breast cancer cell line T-47D; test: Caspase cascade activation assay in T-47D cells; format: cell-based; settings: T47D, 24 h or 48 h incubation, read-out: Caspase Activation Potency EC50 T-47D
Procedure: (§1) Human breast cancer cell lines T-47D and human lung cancer cell line H1299 were grown according to media component mixtures designated by American Type Culture Collection+10% FCS (Invitrogen Corporation), in a 5% CO2-95% humidity incubator at 37° C. T-47D and H1299 cells were maintained at a cell density between 50 and 80% confluency at a cell density of 0.1 to 0.6×10^6 cells/mL. Cells were harvested at 600×g and resuspended at 0.65×10^6 cells/mL into appropriate media+10% FCS. An aliquot of 22.5 μL of cells was added to a well of a 384-well microtiter plate containing 2.5 μL of a 10% DMSO in RPMI-1640 media solution containing 0.16 to 100 μM of N-(3,4-methylenedioxybenzyl)-6-phenylthieno[3,2-d]pyrimidin-4-amine or other test compound (0.016 to 10 μM final). An aliquot of 22.5 μL of cells was added to a well of a 384-well microtiter plate containing 2.5 μL of a 10% DMSO in RPMI-1640 media solution without test compound as the control sample. The samples were mixed by agitation and then incubated at 37° C. for 24 h or 48 h in a 5% CO2-95% humidity incubator. After incubation, the samples were removed from the incubator and 25 μL of a solution containing 14 μM of N-(Ac-DEVD)-N′-ethoxycarbonyl-R110 (SEQ ID No.:1) fluorogenic substrate (Cytovia, Inc.; WO99/18856), 20% sucrose (Sigma), 20 mM DTT (Sigma), 200 mM NaCl (Sigma), 40 mM Na PIPES buffer pH 7.2 (Sigma), and 500 μg/mL lysolecithin (Calbiochem) was added. The samples were mixed by agitation and incubated at room temperature. Using a fluorescent plate reader (Model SPECTRAfluor Plus, Tecan), an initial reading (T=0) was made approximately 1-2 min after addition of the substrate solution, employing excitation at 485 nm and emission at 530 nm, to determine the background fluorescence of the control sample. After the 3 h incubation, the samples were read for fluorescence as above (T=3 h).
(§2) The Relative Florescence Unit values (RFU) were used to calculate the sample readings as follows: RFU(T=3h)−Control RFU(T=0)=Net RFU(T=3h)
(§3) The activity of caspase cascade activation was determined by the ratio of the net RFU value for N-(3,4-methylenedioxybenzyl)-6-phenylthieno[3,2-d]pyrimidin-4-amine (Example A) or other test compound to that of control samples. The EC50 (nM) was determined by a sigmoidal dose-response calculation (Prism 3.0, GraphPad Software Inc.).

[2] = system: human lung cancer cell line H1299; test: Caspase cascade activation assay in H1299 cells; format: cell-based; settings: NCI-H1299, 24 h or 48 h incubation, read-out: Caspase Activation Potency EC50 H1299
Procedure: as §1, §2, §3

Compound | EC50 [1] | EC50 [2]
COc1ccc(CNc2ncnc3cc(I)sc23)c(OC)c1 [Example 16, N-(2,4-Dimethoxybenzyl)-6-iodothieno[3,2-d]pyrimidin-4-amine] | 1.29 µM | 2.87 µM
COc1ccc(CNc2ncnc3cc(I)sc23)cc1OC [Example 14, N-(3,4-Dimethoxybenzyl)-6-iodothieno[3,2-d]pyrimidin-4-amine] | 4.3 µM | 5.08 µM
c1cc(-c2cc3ncnc(NCc4ccc5c(c4)OCO5)c3s2)ccn1 [Example 2, N-(3,4-Methylenedioxybenzyl)-6-(pyridin-4-yl)thieno[3,2-d]pyrimidin-4-amine] | > 10 µM | > 10 µM
Cc1nc(NCc2ccc3c(c2)OCO3)c2sc(Br)cc2n1 [Example 21, N-(3,4-Methylenedioxybenzyl)-6-bromo-2-methylthieno[3,2-d]pyrimidin-4-amine] | > 10 µM | > 10 µM
COc1cc(OC)c(CNc2ncnc3cc(I)sc23)c(OC)c1 [Example 17, N-(2,4,6-Trimethoxybenzyl)-6-iodothieno[3,2-d]pyrimidin-4-amine] | > 10 µM | > 10 µM
c1ncc(-c2cc3ncnc(NCc4ccc5c(c4)OCO5)c3s2)cn1 [Example 13, N-(3,4-Methylenedioxybenzyl)-6-(pyrimidin-5-yl)thieno[3,2-d]pyrimidin-4-amine] | 5.39 µM | 5.43 µM
c1ccc(-c2cc3ncnc(NCc4ccc5c(c4)OCO5)c3s2)nc1 [Example 6, N-(3,4-Methylenedioxybenzyl)-6-(pyridin-2-yl)thieno[3,2-d]pyrimidin-4-amine] | 4.32 µM | 5.1 µM
Oc1ccc(CNc2ncnc3cc(Br)sc23)cc1 [Example 24, N-(4-Hydroxybenzyl)-6-bromothieno[3,2-d]-pyrimidin-4-amine] | > 10 µM | > 10 µM
Oc1ccc(CNc2ncnc3cc(-c4cccnc4)sc23)cc1 [Example 25, N-(4-Hydroxybenzyl)-6-(pyridin-3-yl)thieno[3,2-d]-pyrimidin-4-amine] | > 10 µM | > 10 µM
COc1ccc(CNc2ncnc3cc(-c4ccccc4)sc23)cc1 [Example 10, N-(4-Methoxybenzyl)-6-phenylthieno[3,2-d]pyrimidin-4-amine] | 1.4 µM | 2.68 µM
Cc1nc(NCc2ccc3c(c2)OCO3)c2sc(-c3cccnc3)cc2n1 [Example 23, N-(3,4-Methylenedioxybenzyl)-2-methyl-6-(pyridin-3-yl)thieno[3,2-d]pyrimidin-4-amine] | > 10 µM | > 10 µM

Results, then the compound that gave them:

EC50 [1] | EC50 [2] | Compound
5.13 µM | 2.89 µM | COc1cc(OC)c(CNc2ncnc3cc(-c4cccnc4)sc23)c(OC)c1 [Example 19, N-(2,4,6-Trimethoxybenzyl)-6-(pyridin-3-yl)thieno[3,2-d]pyrimidin-4-amine]
> 10 µM | > 10 µM | Brc1cc2ncnc(NCc3ccc4c(c3)OCO4)c2s1 [Example 11, N-(3,4-Methylenedioxybenzyl)-6-bromothieno[3,2-d]pyrimidin-4-amine]
2.3 µM | 2.57 µM | COc1ccc(OC)c(CNc2ncnc3cc(I)sc23)c1 [Example 18, N-(2,5-Dimethoxybenzyl)-6-iodothieno[3,2-d]pyrimidin-4-amine]
> 10 µM | > 10 µM | c1nc(NCc2ccc3c(c2)OCO3)c2sccc2n1 [Example 1, N-(3,4-Methylenedioxybenzyl)-thieno[3,2-d]pyrimidin-4-amine]
> 10 µM | > 10 µM | Cc1c(-c2ccccc2)sc2c(NCc3ccc4c(c3)OCO4)ncnc12 [Example 8, N-(3,4-Methylenedioxybenzyl)-7-methyl-6-phenylthieno[3,2-d]pyrimidin-4-amine]
2.8 µM | 2.79 µM | c1nc(NCc2ccc3c(c2)OCO3)c2sc(-c3ccoc3)cc2n1 [Example 12, N-(3,4-Methylenedioxybenzyl)-6-(furan-3-yl)thieno[3,2-d]pyrimidin-4-amine]
2.43 µM | 2.39 µM | c1coc(-c2cc3ncnc(NCc4ccc5c(c4)OCO5)c3s2)c1 [Example 4, N-(3,4-Methylenedioxybenzyl)-6-(furan-2-yl)thieno[3,2-d]pyrimidin-4-amine]
> 10 µM | > 10 µM | COc1ccc(OC)c(CNc2ncnc3cc(-c4cccnc4)sc23)c1 [Example 20, N-(2,5-Dimethoxybenzyl)-6-(pyridin-3-yl)thieno[3,2-d]pyrimidin-4-amine]
> 10 µM | > 10 µM | COc1ccc(CNc2ncnc3cc(I)sc23)cc1 [Example 9, N-(4-Methoxybenzyl)-6-iodothieno[3,2-d]pyrimidin-4-amine]
> 10 µM | > 10 µM | Cc1c(I)sc2c(NCc3ccc4c(c3)OCO4)ncnc12 [Example 7, N-(3,4-Methylenedioxybenzyl)-6-iodo-7-methylthieno[3,2-d]pyrimidin-4-amine]
> 10 µM | > 10 µM | COc1ccc(CNc2ncnc3cc(-c4cccnc4)sc23)cc1OC [Example 15, N-(3,4-Dimethoxybenzyl)-6-(pyridin-3-yl)thieno[3,2-d]pyrimidin-4-amine]
0.147 µM | 0.157 µM | CN(Cc1ccc2c(c1)OCO2)c1ncnc2cc(-c3cccnc3)sc12 [Example 22, N-(3,4-Methylenedioxybenzyl)-N-methyl-6-(pyridin-3-yl)thieno[3,2-d]pyrimidin-4-amine]
